Assay results taken from PMC8842224 (Journal of Medicinal Chemistry, 2022).
Where two headings read alike, the source gives them in different places.

Assays:
human A2AAR = human A2AAR (Homo sapiens, UniProt P29274)
human A1AR = molecular target: T1, human A1AR (Homo sapiens, UniProt P30542); conditions: for Exp absolute binding affinity (ΔGbind): experimental, A1AR
T1 sequence (P30542 1-326): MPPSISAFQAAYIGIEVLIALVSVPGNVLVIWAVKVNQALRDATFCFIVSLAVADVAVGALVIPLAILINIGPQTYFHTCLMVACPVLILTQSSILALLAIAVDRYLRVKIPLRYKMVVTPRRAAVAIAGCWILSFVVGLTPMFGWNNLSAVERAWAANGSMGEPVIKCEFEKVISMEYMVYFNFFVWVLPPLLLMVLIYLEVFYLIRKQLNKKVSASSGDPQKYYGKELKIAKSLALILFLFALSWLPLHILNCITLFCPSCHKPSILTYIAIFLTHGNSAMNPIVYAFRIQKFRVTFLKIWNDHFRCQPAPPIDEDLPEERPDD

human A2BAR = molecular target: T2, human A2BAR (Homo sapiens, UniProt P29275); conditions: read-out: hA2B Ki; displacement of specific [3H]DPCPX binding, human HEK-293 cells, ± SEM, n = 3
T2 sequence (P29275 1-332): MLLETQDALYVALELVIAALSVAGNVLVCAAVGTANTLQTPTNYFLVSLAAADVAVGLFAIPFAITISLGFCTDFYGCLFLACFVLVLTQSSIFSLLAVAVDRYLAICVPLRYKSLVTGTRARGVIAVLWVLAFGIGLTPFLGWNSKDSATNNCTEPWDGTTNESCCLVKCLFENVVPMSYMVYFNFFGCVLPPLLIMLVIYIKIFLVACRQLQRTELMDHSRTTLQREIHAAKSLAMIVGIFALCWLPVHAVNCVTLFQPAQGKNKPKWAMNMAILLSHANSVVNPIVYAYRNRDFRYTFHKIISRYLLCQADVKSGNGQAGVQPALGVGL

[1] = read-out: hA2A Ki, displacement of specific [3H]ZM241385 binding, human HeLa cells, ± SEM, n = 3
[2] = read-out: hA1 Ki, displacement of specific [3H]DPCPX binding, human CHO cells, ± SEM, n = 3
[3] = read-out: ki_a2a, supplementary csv, unit inferred
[4] = read-out: ki_a1, supplementary csv, unit inferred

human A2AAR, sequence (P29274 whole entry): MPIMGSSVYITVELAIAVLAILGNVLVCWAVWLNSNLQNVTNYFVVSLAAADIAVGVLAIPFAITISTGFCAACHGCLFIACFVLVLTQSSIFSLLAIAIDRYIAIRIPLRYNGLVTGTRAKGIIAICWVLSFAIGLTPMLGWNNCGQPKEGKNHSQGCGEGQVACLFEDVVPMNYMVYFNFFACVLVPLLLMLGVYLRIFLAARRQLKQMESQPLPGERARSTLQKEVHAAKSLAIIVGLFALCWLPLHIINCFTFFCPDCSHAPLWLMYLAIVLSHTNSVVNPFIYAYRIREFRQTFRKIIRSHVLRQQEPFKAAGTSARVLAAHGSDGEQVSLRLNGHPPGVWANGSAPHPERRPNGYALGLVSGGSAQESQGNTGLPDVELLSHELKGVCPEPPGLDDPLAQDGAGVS

Structure (SMILES)	Ki (human A2AAR; [1])	Ki (human A1AR; [2])	Ki (human A2BAR)	further results
N#Cc1c(-c2ccccc2)nc(N)nc1-c1ccccc1 [18a]	18.6 ± 3.4 nM			
N#Cc1c(-c2ccccc2)nc(N)nc1-c1ccsc1 [18aa]	20.6 ± 2.7 nM	5.25 ± 2.16 nM		
N#Cc1c(-c2ccccc2)nc(N)nc1-c1ccncc1 [18ab]	676 ± 27 nM	216 ± 23 nM		Ki (human A2AAR; [3]): 677 nM; Ki (human A1AR; [4]): 216 nM
N#Cc1c(-c2ccccc2)nc(N)nc1-c1cccnc1 [18ac]	36.4 ± 5.7 nM	19.6 ± 1.47 nM		
N#Cc1c(-c2ccccc2)nc(N)nc1-c1ccc2ccccc2c1 [18af]	5.78 ± 1.16 nM	8.27 ± 2.1 nM		
N#Cc1c(-c2ccccc2)nc(N)nc1-c1ccc(-c2ccccc2)cc1 [18ag]		6500 ± 451 nM		
N#Cc1c(-c2cccc(Cl)c2)nc(N)nc1-c1cccc(Cl)c1 [18ah]	35.3 ± 7.7 nM	4.82 ± 0.37 nM	73.6 ± 6.8 nM	
N#Cc1c(-c2cccc(Cl)c2)nc(N)nc1-c1cc(Cl)cc(Cl)c1 [18ai]	190 ± 22 nM	7.81 ± 1.43 nM		
N#Cc1c(-c2cccc(Cl)c2)nc(N)nc1-c1ccc2c(c1)OCO2 [18aj]	101 ± 15 nM	5.61 ± 0.74 nM	386 ± 15 nM	Ki (human A2AAR; [3]): 102 nM
N#Cc1c(-c2ccc(F)cc2)nc(N)nc1-c1ccc2c(c1)OCO2 [18ak]	61 ± 4.9 nM	12.5 ± 2.3 nM		
COc1ccc(-c2nc(N)nc(-c3ccc(OC)cc3)c2C#N)cc1 [18al]		74.3 ± 3.4 nM		
N#Cc1c(-c2ccc(F)cc2)nc(N)nc1-c1ccco1 [18am]	5.72 ± 0.26 nM	9.08 ± 1.16 nM	13.9 ± 3.7 nM	
N#Cc1c(-c2ccccc2)nc(N)nc1-c1ccccc1F [18b]	17.6 ± 2.8 nM	6.44 ± 1.25 nM		
COc1ccccc1-c1nc(N)nc(-c2ccccc2)c1C#N [18d]	17.7 ± 2.1 nM	13.1 ± 3.2 nM		
N#Cc1c(-c2ccccc2)nc(N)nc1-c1cccc(F)c1 [18e]	19.5 ± 3.3 nM	13.4 ± 4.1 nM	186 ± 11 nM	
N#Cc1c(-c2ccccc2)nc(N)nc1-c1cccc(Cl)c1 [18f]	15.5 ± 2.4 nM	4.25 ± 1.1 nM	177 ± 13 nM	
COc1cccc(-c2nc(N)nc(-c3ccccc3)c2C#N)c1 [18g]	6.91 ± 1.52 nM	2.08 ± 0.16 nM	31.2 ± 6.3 nM	
N#Cc1c(-c2ccccc2)nc(N)nc1-c1cccc(O)c1 [18h]	10.2 ± 3.52 nM	1.49 ± 0.43 nM	50.1 ± 8.2 nM	
N#Cc1cccc(-c2nc(N)nc(-c3ccccc3)c2C#N)c1 [18i]	84.1 ± 11.7 nM	6.49 ± 1.14 nM		
N#Cc1c(-c2ccccc2)nc(N)nc1-c1ccc(F)cc1 [18j]	16.3 ± 2.9 nM	4.19 ± 1.16 nM		
N#Cc1c(-c2ccccc2)nc(N)nc1-c1ccc(Br)cc1 [18k]	21.9 ± 5 nM	9.19 ± 2.81 nM		

Structure (SMILES)	Ki (human A2AAR; [1])	Ki (human A1AR; [2])	Ki (human A2BAR)	further results
COc1ccc(-c2nc(N)nc(-c3ccccc3)c2C#N)cc1 [18l]	46 ± 3.2 nM	7.16 ± 2.03 nM		
N#Cc1c(-c2ccccc2)nc(N)nc1-c1ccc(O)cc1 [18m]	26.5 ± 1.6 nM	4.14 ± 0.55 nM		
Cc1ccc(-c2nc(N)nc(-c3ccccc3)c2C#N)cc1 [18n]	8.93 ± 0.12 nM	5.38 ± 1.36 nM		
N#Cc1c(-c2ccccc2)nc(N)nc1-c1ccc(F)cc1F [18o]	15.5 ± 2.21 nM	4 ± 1.82 nM		
COc1ccc(-c2nc(N)nc(-c3ccccc3)c2C#N)c(OC)c1 [18q]	10.2 ± 1.83 nM	3.98 ± 0.74 nM		
N#Cc1c(-c2ccccc2)nc(N)nc1-c1cc(Cl)cc(Cl)c1 [18s]	95.4 ± 16.5 nM	15.9 ± 2.11 nM		
COc1cc(OC)cc(-c2nc(N)nc(-c3ccccc3)c2C#N)c1 [18t]	1.73 ± 0.33 nM	2.58 ± 0.67 nM	45.1 ± 3.7 nM	
N#Cc1c(-c2ccccc2)nc(N)nc1-c1ccc2c(c1)OCO2 [18u]	10.2 ± 1.09 nM		43.3 ± 4.2 nM	
COc1cc(-c2nc(N)nc(-c3ccccc3)c2C#N)cc(OC)c1OC [18v]	0.95 ± 0.07 nM	2.58 ± 0.05 nM		
N#Cc1c(-c2ccccc2)nc(N)nc1-c1ccco1 [18x]	10.1 ± 3.7 nM	9.7 ± 1.2 nM	21.8 ± 2.7 nM	
N#Cc1c(-c2ccccc2)nc(N)nc1-c1cccs1 [18y]	24.9 ± 4.6 nM	17.3 ± 4.4 nM	40.6 ± 3.7 nM	
N#Cc1c(-c2ccccc2)nc(N)nc1-c1ccoc1 [18z]	52.1 ± 5.1 nM	18.7 ± 3.4 nM		
CNc1nc(-c2ccccc2)c(C#N)c(-c2ccccc2)n1 [19a]	711 ± 43 nM	9.14 ± 2.21 nM		Exp relative binding affinity (ΔΔGbind) (human A1AR; Lig 2 relative to Lig 1 = 19ad): -0.66 kcal/mol; Exp absolute binding affinity (ΔGbind) (human A1AR): -10.96 kcal/mol
CNc1nc(-c2ccccc2)c(C#N)c(-c2ccc(OC)cc2)n1 [19ab]		57.5 ± 2.7 nM		Exp absolute binding affinity (ΔGbind) (human A1AR): -9.87 kcal/mol
COc1ccc(-c2nc(Nc3ccccc3)nc(-c3ccccc3)c2C#N)cc1 [19ac]	51.4 ± 3.7 nM		186 ± 15 nM	
CNc1nc(-c2ccccc2)c(C#N)c(-c2ccc(C)cc2)n1 [19ad]		28 ± 9.3 nM	474 ± 32 nM	Exp absolute binding affinity (ΔGbind) (human A1AR): -10.30 kcal/mol
Cc1ccc(-c2nc(Nc3ccccc3)nc(-c3ccccc3)c2C#N)cc1 [19ae]	157 ± 16 nM	37.9 ± 5.7 nM		Ki (human A2AAR; [3]): 158 nM
CCNc1nc(-c2ccccc2)c(C#N)c(-c2cc(Cl)cc(Cl)c2)n1 [19ak]		135 ± 20 nM		Ki (human A1AR; [4]): 136 nM
CNc1nc(-c2ccccc2)c(C#N)c(-c2cc(OC)cc(OC)c2)n1 [19am]	11.5 ± 4.7 nM	11 ± 0.8 nM	60 ± 5.1 nM	Exp relative binding affinity (ΔΔGbind) (human A1AR; Lig 2 relative to Lig 1 = 19a): 0,11 kcal/mol; Exp relative binding affinity (ΔΔGbind) (human A1AR; Lig 2 relative to Lig 1 = 19ab): -0.98 kcal/mol; Exp absolute binding affinity (ΔGbind) (human A1AR): -10.85 kcal/mol
COc1cc(OC)cc(-c2nc(Nc3ccccc3)nc(-c3ccccc3)c2C#N)c1 [19an]	17.3 ± 1.9 nM		64 ± 9.6 nM	
CCNc1nc(-c2ccccc2)c(C#N)c(-c2ccc3c(c2)OCO3)n1 [19ap]	894 ± 42 nM	6.7 ± 0.67 nM	217 ± 18 nM	Ki (human A2AAR; [3]): 895 nM

Structure (SMILES)	Ki (human A2AAR; [1])	Ki (human A1AR; [2])	Ki (human A2BAR)	further results
CNc1nc(-c2ccccc2)c(C#N)c(-c2cc(OC)c(OC)c(OC)c2)n1 [19ar]	3.63 ± 0.88 nM	11.7 ± 3.1 nM		
COc1cc(-c2nc(Nc3ccccc3)nc(-c3ccccc3)c2C#N)cc(OC)c1OC [19as]	15.8 ± 3.7 nM	76.5 ± 9.1 nM		
CNc1nc(-c2ccccc2)c(C#N)c(-c2ccco2)n1 [19at]	401 ± 25 nM	6.66 ± 2.4 nM		Ki (human A2AAR; [3]): 402 nM; Exp relative binding affinity (ΔΔGbind) (human A1AR; Lig 2 relative to Lig 1 = 19a): -0.19 kcal/mol; Exp relative binding affinity (ΔΔGbind) (human A1AR; Lig 2 relative to Lig 1 = 19ax): -4.33 kcal/mol; Exp absolute binding affinity (ΔGbind) (human A1AR): -11.15 kcal/mol
N#Cc1c(-c2ccccc2)nc(Nc2ccccc2)nc1-c1cccs1 [19aw]	330 ± 27 nM	42.3 ± 4.6 nM		
CNc1nc(-c2ccccc2)c(C#N)c(-c2ccoc2)n1 [19ax]				Exp absolute binding affinity (ΔGbind) (human A1AR): -6.82 kcal/mol
N#Cc1c(-c2ccccc2)nc(Nc2ccccc2)nc1-c1ccoc1 [19ay]	368 nM			
CCNc1nc(-c2ccccc2)c(C#N)c(-c2ccccc2)n1 [19b]	357 ± 21 nM	5.82 ± 1.16 nM		
N#Cc1c(-c2ccccc2)nc(Nc2ccccc2)nc1-c1ccsc1 [19ba]	102 ± 27 nM			
CNc1nc(-c2ccccc2)c(C#N)c(-c2ccncc2)n1 [19bb]		56.9 ± 6.7 nM		Exp relative binding affinity (ΔΔGbind) (human A1AR; Lig 2 relative to Lig 1 = 19a): 1.08 kcal/mol; Exp absolute binding affinity (ΔGbind) (human A1AR): -9.88 kcal/mol
N#Cc1c(-c2ccccc2)nc(Nc2ccccc2)nc1-c1cccnc1 [19bf]	27.1 ± 5.7 nM		29.4 ± 4 nM	
N#Cc1c(-c2ccccc2)nc(Nc2ccccc2)nc1-c1ccccc1 [19c]	55.1 ± 4.3 nM	45.6 ± 6.7 nM		
CNc1nc(-c2ccccc2)c(C#N)c(-c2ccccc2F)n1 [19d]		29.5 ± 2.3 nM	47.8 ± 3.8 nM	Exp relative binding affinity (ΔΔGbind) (human A1AR; Lig 2 relative to Lig 1 = 19a): 0.69 kcal/mol; Exp absolute binding affinity (ΔGbind) (human A1AR): -10.27 kcal/mol
CNc1nc(-c2ccccc2)c(C#N)c(-c2cccc(F)c2)n1 [19j]		28.5 ± 2.7 nM	358 ± 27 nM	Exp relative binding affinity (ΔΔGbind) (human A1AR; Lig 2 relative to Lig 1 = 19a): 0.67 kcal/mol; Exp relative binding affinity (ΔΔGbind) (human A1AR; Lig 2 relative to Lig 1 = 19s): 1.34 kcal/mol; Exp relative binding affinity (ΔΔGbind) (human A1AR; Lig 2 relative to Lig 1 = 19v): 0.12 kcal/mol; Exp absolute binding affinity (ΔGbind) (human A1AR): -10.29 kcal/mol
CCNc1nc(-c2ccccc2)c(C#N)c(-c2cccc(Cl)c2)n1 [19m]	295 ± 27 nM	5.1 ± 1.8 nM		
N#Cc1c(-c2ccccc2)nc(Nc2ccccc2)nc1-c1cccc(Cl)c1 [19n]	46.3 ± 2.5 nM			
CNc1nc(-c2ccccc2)c(C#N)c(-c2cccc(O)c2)n1 [19o]	105 ± 8 nM	2.48 ± 0.71 nM		
CNc1nc(-c2ccccc2)c(C#N)c(-c2cccc(OC)c2)n1 [19q]	82.6 ± 4.9 nM	13.2 ± 4.1 nM		
COc1cccc(-c2nc(Nc3ccccc3)nc(-c3ccccc3)c2C#N)c1 [19r]	133 ± 11 nM	95.5 ± 11.7 nM		
N#Cc1cccc(-c2nc(Nc3ccccc3)nc(-c3ccccc3)c2C#N)c1 [19u]		18.2 ± 3.1 nM	16.4 ± 2.2 nM	
N#Cc1c(-c2ccccc2)nc(Nc2ccccc2)nc1-c1ccc(F)cc1 [19w]		36.3 ± 4.1 nM	51.7 ± 3.1 nM	
